Tests used:
KCB cells = details: 12-14 hours exposure
Procedure: The inventive cells were cryopreserved in a solution consisting of 10% DMSO and 10% FBS (fetal-bovine-serum) in MEM (minimum-essential-medium) at −80° C. The cells were thawed, washed with MEM and transferred to a 96 micro-well plate. In order to avoid evaporation of medium and consequent bias in MN frequency, the outer wells were left empty and the micro-well plate was sealed with duct tape. The inner wells were filled with cells in medium. The medium employed was composed of 86% MEM, 10% FBS, 1% non-essential-amino acids, 1% streptomycin (5 mg/ml in PBS—phosphate-buffered saline), 1% penicillin (3.125 mg/ml in PBS) and 1% amphotericin (250 μg/ml in deionized water). The cells were cultivated at 26° C. until they formed a moderately dense monolayer. The time until optimal monolayer density was achieved varied from two to five days.
Two untreated (i.e. not exposed to genotoxic compounds) columns served as internal (negative) controls of each plate.
It is possible, but not absolutely necessary, to replace the exposure medium by a recovery medium before the scoring. The scoring of micronuclei shall take place earliest 2 hours and latest 12 hours after the end of the exposure period.
In the basic test, a minimum of two pictures per well, corresponding to at least 24 pictures per concentration or control, were taken under a fluorescence microscope with an objective magnification of 40×. Normal cell nuclei, MN and fragmented nuclei in each picture were counted visually with aid of the “Cell Counter” plugin from the public domain image processing software “ImageJ”. Finally, the frequencies of MN per concentration were calculated.

[1] = system: carp (Cyprinus carpio) erythrocytes; details: fish injected with 0.4 mg colchicine/kg body weight; background 2%; cited from earlier work
human skin fibroblasts = details: colchicine 20 ng/mL (around 0.05 μM), 72 hours; background 0.2-0.9%; cited from earlier work
human lymphocytes = details: colchicine 0.06 μM, 24 hours; controls 1%; cited from earlier work

O=[N+]([O-])c1cc[n+]([O-])c2ccccc12 [4NQO, 4-Nitroquinoline 1-oxide]
concentrations at which a cytotoxic threshold may have been achieved (MN frequency diminishing or stabilizing) (KCB cells): ≥ 600 nM

COc1cc2c(c(OC)c1OC)-c1ccc(OC)c(=O)cc1[C@@H](NC(C)=O)CC2 [colchicine]
MN frequency [1]: around 10%
MN frequency (human skin fibroblasts): up to 4.7%
concentrations at which a cytotoxic threshold may have been achieved (MN frequency diminishing or stabilizing) (KCB cells): higher than 0.188 μM
maximal MN frequency (KCB cells; colchicine at 0.375 μM): 1.77%
maximal frequency of fragmented nuclei (KCB cells; colchicine at 0.5 μM): 6.85%
MN frequency (human lymphocytes): around 15.2%
